Experimental data published in patent US20230278972A1, “SUBSTITUTED HALOALKYL SULFONANILIDE HERBICIDES” (FMC Corporation, priority 2020, published 2023).

Assays:
[1] = system: barnyardgrass (Echinochloa crus-galli); assay: Test A preemergence, barnyardgrass; format: in vivo; details: Echinochloa crus-galli, pre-emergence, 240 h
How it was run: (§1)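 Compounds in non-phytotoxic solvent with surfactant. Soil: loam/sand. Preemergence via directed soil spray after seeding; postemergence on seedlings 2–10 cm, one- to two-leaf.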

kochia (Bassia scoparia) [2] = assay: Test A preemergence, kochia; format: in vivo; details: Bassia scoparia, pre-emergence, 240 h
How it was run: as §1

[3] = system: ragweed (common ragweed, Ambrosia artemisiifolia); assay: Test A preemergence, ragweed; format: in vivo; details: Ambrosia artemisiifolia, pre-emergence, 240 h
How it was run: as §1

[4] = system: Ryegrass, Italian (Italian ryegrass, Lolium multiflorum); assay: Test A preemergence, Ryegrass, Italian; format: in vivo; details: Lolium multiflorum, pre-emergence, 240 h
How it was run: as §1

[5] = system: Foxtail, Giant (giant foxtail, Setaria faberi); assay: Test A preemergence, Foxtail, Giant; format: in vivo; details: Setaria faberi, pre-emergence, 240 h
How it was run: as §1

[6] = system: barnyardgrass (Echinochloa crus-galli); assay: Test A postemergence, barnyardgrass; format: in vivo; details: Echinochloa crus-galli, post-emergence, 240 h, read-out: Plant response rating, Barnyardgrass
How it was run: (§2)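 Preemergence: pigweed seeds in loam soil–sand blend received a directed soil spray of test chemicals in a non-phytotoxic solvent with surfactant. Postemergence: barnyardgrass, wheat and galium in pots of the same soil, 2 to 10 cm tall at one- to two-leaf stage, sprayed with the same formulation.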

kochia (Bassia scoparia) [7] = assay: Test A postemergence, kochia; format: in vivo; details: Bassia scoparia, post-emergence, 240 h, read-out: Plant response rating, Kochia
How it was run: as §1

[8] = system: ragweed (common ragweed, Ambrosia artemisiifolia); assay: Test A postemergence, ragweed; format: in vivo; details: Ambrosia artemisiifolia, post-emergence, 240 h, read-out: Plant response rating, Ragweed
How it was run: as §1

[9] = system: Ryegrass, Italian (Italian ryegrass, Lolium multiflorum); assay: Test A postemergence, Ryegrass, Italian; format: in vivo; details: Lolium multiflorum, post-emergence, 240 h, read-out: Plant response rating, Ryegrass, Italian
How it was run: as §1

[10] = system: Foxtail, Giant (giant foxtail, Setaria faberi); assay: Test A postemergence, Foxtail, Giant; format: in vivo; details: Setaria faberi, post-emergence, 240 h, read-out: Plant response rating, Foxtail, Giant
How it was run: as §1

[11] = system: pigweed (Amaranthus retroflexus); assay: Test A postemergence, pigweed; format: in vivo; details: Amaranthus retroflexus, post-emergence, 240 h, read-out: Plant response rating, Pigweed
How it was run: as §1

[12] = system: wheat (Triticum aestivum); assay: Test A postemergence, wheat; format: in vivo; details: Triticum aestivum, post-emergence, 240 h, read-out: Plant response rating, Wheat
How it was run: as §2

corn (Zea mays) = assay: Test A postemergence, corn; format: in vivo; details: Zea mays, post-emergence, 240 h, read-out: Plant response rating, Corn
How it was run: as §1

[13] = system: blackgrass (Alopecurus myosuroides); assay: Test A postemergence, blackgrass; format: in vivo; details: Alopecurus myosuroides, post-emergence, 240 h, read-out: Plant response rating, Blackgrass
How it was run: as §1

[14] = system: galium (catchweed bedstraw, Galium aparine); assay: Test A postemergence, galium; format: in vivo; details: Galium, post-emergence, 240 h, read-out: Plant response rating, Galium
How it was run: as §2

rice (Oryza sativa) = assay: Test B flooded paddy test, rice; details: 336 h, read-out: Plant response rating, Rice
[15] = system: ducksalad (Heteranthera limosa); assay: Test B flooded paddy test, ducksalad; details: 336 h, read-out: Plant response rating, Ducksalad
[16] = system: barnyardgrass (Echinochloa crus-galli); assay: Test B flooded paddy test, barnyardgrass; details: 336 h, read-out: Plant response rating, Barnyardgrass

Cc1cc(C)c(N(S(=O)(=O)C(F)(F)F)S(=O)(=O)C(F)(F)F)cc1N1CCC2(CCCCC2)C1=O [Compound 267, N-[2,4-Dimethyl-5-(1-oxo-2-azaspiro[4.5]dec-2-yl)phenyl]-1,1,1-trifluoro-N-[(trifluoromethyl)sulfonyl]methanesulfonamide]
pest or weed control at 500 g/ha ([1]; read-out: Barnyardgrass plant response rating): 100% | pest or weed control at 125 g/ha ([1]; read-out: Plant response rating, Barnyardgrass): 100% | pest or weed control at 500 g/ha (kochia (Bassia scoparia) [2]; read-out: Kochia plant response rating): 100% | pest or weed control at 125 g/ha (kochia (Bassia scoparia) [2]; read-out: Plant response rating, Kochia): 80% | pest or weed control at 125 g/ha ([3]; read-out: Plant response rating, Ragweed): 100% | pest or weed control at 500 g/ha ([3]; read-out: Ragweed plant response rating): 100% | pest or weed control at 125 g/ha ([4]; read-out: Plant response rating, Ryegrass, Italian): 90% | pest or weed control at 500 g/ha ([4]; read-out: Ryegrass, Italian plant response rating): 100% | pest or weed control at 500 g/ha ([5]; read-out: Foxtail, Giant plant response rating): 100% | pest or weed control at 125 g/ha ([5]; read-out: Plant response rating, Foxtail, Giant): 100% | pest or weed control at 125 g/ha [6]: 20% | pest or weed control at 500 g/ha [6]: 20% | pest or weed control at 125 g/ha (kochia (Bassia scoparia) [7]): 40% | pest or weed control at 500 g/ha (kochia (Bassia scoparia) [7]): 60% | pest or weed control at 125 g/ha [8]: 10% | pest or weed control at 500 g/ha [8]: 40% | pest or weed control at 125 g/ha [9]: 0% | pest or weed control at 500 g/ha [9]: 30% | pest or weed control at 125 g/ha [10]: 0% | pest or weed control at 500 g/ha [10]: 0% | pest or weed control at 125 g/ha [11]: 50% | pest or weed control at 500 g/ha [11]: 80% | plant injury at 125 g/ha [12]: 40% | plant injury at 500 g/ha [12]: 60% | plant injury at 125 g/ha (corn (Zea mays)): 0% | plant injury at 500 g/ha (corn (Zea mays)): 0% | pest or weed control at 125 g/ha [13]: 0% | pest or weed control at 500 g/ha [13]: 20% | pest or weed control at 125 g/ha [14]: 80% | pest or weed control at 500 g/ha [14]: 90% | plant injury at 250 g/ha (rice (Oryza sativa)): 0% | pest or weed control at 250 g/ha [15]: 35% | pest or weed control at 250 g/ha [16]: 0%
